Data taken from patent US9567368B2, “Peptide tyrosinase activators” (Escape Therapeutics, Inc., priority 2013, dated 2017).
Where no end group is shown, it is not given here.

Assays:
[1] = system: B16-F1 mouse melanoma cells; assay: Melanin content measurement (extracellular and intracellular) in B16 cells; format: cell-based; conditions: relative to control
Protocol: (§1) B16-F1 mouse melanoma cells (CRL-6323) were obtained and cultured in DMEM containing 10 percent fetal bovine serum, 100 units per milliliter (U/mL) penicillin, 0.1 mg/mL streptomycin, and 0.25 microgram per milliliter (μg/mL) amphotericin B at 37 degrees Celsius in a humidified 95 percent air/5 percent CO2 incubator. Drug treatment began 24 hours after seeding. Cells were harvested 72 hours later and melanin content and tyrosinase activity determined in triplicate.
Extracellular melanin was estimated spectro-photometrically based on its absorption of light at 475 nanometers. After 72 hours treatment period, medium was collected and centrifuged (800×g for 10 minutes) and absorbance read at 475 nanometers. For intracellular melanin content, cells were collected by centrifugation and resuspended in PBS. Aliquots were removed for cell counting and protein estimation. To the remaining suspension, an equal volume of ethanol:ether (1:1 volume to volume) was added in order to remove opaque substances other than melanin which is not soluble in ethanol/ether (see, for example, Oikawa et al., Yale J. Biol. Med., 1973, 46: 500-507). After further centrifugation at 3000×g for 5 minutes, the precipitate was solubilized by treatment with 1 milliliter of 1 N NaOH solution at 80 degrees Celsius for 30 minutes in capped tubes. The absorbance was measured at 475 nanometers and compared to a standard curve prepared from standard dopa-melanin dissolved in the same solution. Melanin content per microgram (μg) cellular protein was calculated and expressed as a percentage of control.
FIGS. 2A-2B show the effect of P9 and P10 on extracellular and intracellular melanin content. […] In a specific embodiment, general materials and methods include 3×10E5 B16 cells per well incubated for 72 hours. Control wells had media only. Other treatments were 600 micromolar L-tyrosine; 50 microgram per milliliter scoparone; 300 micromolar IBMX; 300 micromolar P9; and 300 micromolar P10. Data are expressed as a percentage of the control and are mean±SEM of three separate experiments and analyzed by one-way ANOVA. On the graph, for the bar corresponding to extracellular data (indicated by “*”), P<0.01 versus extracellular control, and for the second bar corresponding to intracellular data (indicated by “**”), P<0.01 versus intracellular control.

[2] = system: purified mushroom tyrosinase; assay: Allosteric activation of tyrosinase after inhibition by 6BH4; format: biochemical
Protocol: To investigate the mechanism by which P9 and P10 exert their stimulatory effect on tyrosinase, 6BH4, an allosteric inhibitor of tyrosinase, was used in an experiment. In a 96-well plate, control wells containing substrate L-tyrosine, purified mushroom tyrosinase, and PBS (pH 6.8) were incubated at 37 degrees Celsius and periodically read at 475 nanometers. After 6 minutes, 20 micromolar 6BH4 was added to all wells except controls. At minute 12, the other triplicate wells received one of the following reagents: 20 micromolar of α-MSH, 100 micromolar of P4, P9, or P10, or 200 micromolar L-tyrosine.
In a 96-well plate the control wells contained substrate L-tyrosine, purified mushroom tyrosinase and PBS (pH 6.8). The plate was incubated at 37 degrees Celsius and periodically read at 475 nanometers. After six minutes, 6BH4 was added to all wells except the control triplicate. At minute 12, the other triplicate wells received one of the following reagents: 10 micromolar of α-MSH, 100 micromolar of P4, P9 or P10, and 200 micromolar L-tyrosine. Data shown are mean±SEM of three independent runs.

mushroom tyrosinase = assay: Assay of mushroom tyrosinase activity (L-tyrosine substrate, dopachrome at 475 nm); format: biochemical; conditions: for mushroom tyrosinase activity increase: 1 millimolar
Protocol: The effect of pentapeptides P9 and P10 on mushroom tyrosinase activity was determined in vitro using L-tyrosine as the substrate (see, for example, Piao et al., Chem. Pharm. Bull. (Tokyo), 2002, 50: 309-311). The experiment was conducted in a 96-well flat-bottomed plate. Each well contained 80 microliters of 0.067 molar potassium phosphate buffer (pH 6.8), 40 microliters of 5 milligrams per milliliter L-tyrosine dissolved in 0.067 molar potassium phosphate buffer (pH 6.8), 40 microliters of the different concentrations of P9 or P10 dissolved in the same buffer, and 40 microliters of 480 units per milliliter mushroom tyrosinase solution. The final volume of each well was 200 microliters, containing […] L-tyrosine, 96 units per millileter tyrosinase and varying concentrations of P9 or P10, ranging from 30 micromolar to 1 millimolar. In the control wells, P9 and P10 were substituted with buffer solution and adjusted to a 200 microliters total volume. The assay mixture was incubated at 37 degrees Celsius and optical density (OD), which correlates to the amount of dopachrome produced, was measured periodically at 475 nanometers using a microplate reader (e.g., a Varioskan microplate reader from Thermo Electron Corporation).
FIGS. 4A and 4B show mushroom tyrosinase activity increased by 123±4 percent and 156±4 percent at 1 millimolar P9 and P10, respectively. […] In the control wells, the reaction mix included purified mushroom tyrosinase, PBS (pH 6.8) and substrate L-tyrosine. In the other triplicate wells, P9 or P10 were added at various concentrations. The reaction was incubated at 37 degrees Celsius and the plate was read periodically at 475 nanometers.

[3] = MTT proliferation and viability assay; format: cell-based; conditions: mouse, B16 cells, percentage of control, read-out: proliferation rate
Protocol: Proliferation rates were determined using a general cell proliferation kit (e.g., TACS® MTT Cell Proliferation Kit from R&D systems). Cells were plated at 2.5×10E4 per well in 96-well plates in a humidified atmosphere with 5 percent CO2 at 37 degrees Celsius. Twenty-four hours after plating, test samples were added and cultures were incubated for an additional 72 hours. The remainder of the procedure was performed following the manufacturer's protocol.
(§2) For the tyrosinase activity, the reaction mixture containing 100 microliter of freshly prepared substrate solution [0.1 percent L-DOPA in 0.1 moles per liter sodium phosphate (pH 6.8)] and 50 microliters of enzyme solution was incubated at 37 degrees Celsius. The absorbance change was measured during the first 10 minutes of the reaction while the increase of the absorbance was linear, and corrections for auto-oxidation of L-DOPA in the controls were made. Activities were expressed as a percentage of the control cells. MTT was performed following the manufacturer's protocol. Data are expressed as a percentage of control and are mean±SEM of three separate experiments.

B16 tyrosinase = target: T1, B16 tyrosinase (Mus musculus, UniProt P11344); assay: Assay of B16 tyrosinase activity (DOPA oxidase activity); format: cell-based; conditions: for B16 tyrosinase activity increase: 72 hours incubation, relative to control cells; for EC50: approximate, see FIG. 3, read-out: EC 50 (dose that produces half the maximum response)
T1 construct: host or cells: B16-F1 mouse melanoma cells
T1 sequence (P11344 19-533): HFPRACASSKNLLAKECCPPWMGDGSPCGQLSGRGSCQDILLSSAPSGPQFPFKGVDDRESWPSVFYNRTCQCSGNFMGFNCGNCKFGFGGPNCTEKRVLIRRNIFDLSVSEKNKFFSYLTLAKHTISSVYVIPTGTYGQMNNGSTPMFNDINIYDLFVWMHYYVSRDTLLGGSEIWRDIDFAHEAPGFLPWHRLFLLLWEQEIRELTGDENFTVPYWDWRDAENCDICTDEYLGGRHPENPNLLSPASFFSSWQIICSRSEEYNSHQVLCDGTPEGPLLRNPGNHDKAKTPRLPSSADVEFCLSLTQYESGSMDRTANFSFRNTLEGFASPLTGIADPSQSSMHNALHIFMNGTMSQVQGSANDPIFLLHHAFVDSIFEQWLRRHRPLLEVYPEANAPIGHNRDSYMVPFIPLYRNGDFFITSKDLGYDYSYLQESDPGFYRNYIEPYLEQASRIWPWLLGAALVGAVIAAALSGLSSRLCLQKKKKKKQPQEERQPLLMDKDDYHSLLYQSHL
Protocol: as §1
Tyrosinase activity was assayed as DOPA oxidase activity. This can be according to traditional or modified assaying methods (see, for example, Yang et al., Acta Pharmacol. Sin. 2006, 27: 1467-1473). Cells were washed twice with PBS and lysed with 20 […] (mmol/L) Tris-0.1 percent Triton X-100 (pH 7.5). Tyrosinase activity was analyzed spectrophotometrically by following the oxidation of DOPA to DOPAchrome at 475 nanometers. The reaction mixture containing 100 microliter (μL) of freshly prepared substrate solution [0.1 percent L-DOPA in 0.1 mol/L sodium phosphate (pH 6.8)] and 50 microliters (μL) of enzyme solution was incubated at 37 degrees Celsius. Absorbance change was measured during the first 10 minutes of the reaction while the increase of the absorbance was linear, and corrections for auto-oxidation of L-DOPA in the controls were made. Activities were expressed as a percentage of control cells.
as §2

[4] = 600 micromolar L-tyrosine, 72 hours
[5] = 300 micromolar, 72 hours incubation
[6] = 10 micromolar α-MSH added at minute 12 after 6BH4

For `N[C@@H](Cc1ccc(O)cc1)C(=O)O` [L-tyrosine], the “extracellular melanin content increase” value [1, 4] was 43±5%, the “intracellular melanin content increase” value [1, 4] was 7±3% and the “reversal of 6BH4-dependent tyrosinase inhibition” value ([2]; 200 micromolar L-tyrosine added at minute 12 after 6BH4) was “neither the addition of P4 nor L-tyrosine reversed”.

With `CC(C)Cn1c(=O)n(C)c(=O)c2[nH]cnc21` [IBMX, 3-isobutyl-1-methylxanthine] the “extracellular melanin content increase” value [1, 5] was 187±9% and the “intracellular melanin content increase” value [1, 5] was 67±6%.

In the case of YRSRK [P10, YRSRK], the “mushroom tyrosinase activity increase” value (mushroom tyrosinase) is reported as 156±4%, the dopachrome formation increase (mushroom tyrosinase; 30 micromolar) is reported as 45±3% and the dopachrome formation increase (mushroom tyrosinase; 300 micromolar) is reported as 134±3%. For the same molecule, the viability at 72 h, 10 millimolar [3] was 95 ± 2%, the “intracellular melanin content increase” value [1, 5] was 62±6% and the “B16 tyrosinase activity increase” value (B16 tyrosinase; 3 millimolar) was 91±6%. The “B16 tyrosinase activity increase” value (B16 tyrosinase; 300 micromolar) was 48±5% and the EC50 (B16 tyrosinase) was about 300 µM.

For `COc1cc2ccc(=O)oc2cc1OC` [scoparone, Scoparone], the “intracellular melanin content increase” value ([1]; 50 microgram per milliliter scoparone, 72 hours) was 53±6.9%.

For YSSWY [P9, YSSWY], the “mushroom tyrosinase activity increase” value (mushroom tyrosinase) was 123±4%, the dopachrome formation increase (mushroom tyrosinase; 30 micromolar) was 28±3% and the dopachrome formation increase (mushroom tyrosinase; 300 micromolar) was 100±3%. The viability at 72 h, 10 millimolar [3] was 94 ± 2%, the “extracellular melanin content increase” value [1, 5] was 170% and the “intracellular melanin content increase” value [1, 5] was 47±6%. The “B16 tyrosinase activity increase” value (B16 tyrosinase; 3 millimolar) was 84±3%, the “B16 tyrosinase activity increase” value (B16 tyrosinase; 300 micromolar) was 38±4% and the EC50 (B16 tyrosinase) was about 300 µM.

With “α-Melanocyte Stimulating Hormone [α-MSH]” the “reversal of 6BH4-dependent tyrosinase inhibition (reactivation of the enzyme)” value [2, 6] was “reactivated the enzyme” and the “tyrosinase activity after reactivation, compared with control” value [2, 6] was “increased its activity to levels exceeding the control”.

With `C[C@H](O)[C@H](O)[C@H]1CNc2nc(N)[nH]c(=O)c2N1` [6BH4, (6R)-L-erythro-5,6,7,8-tetrahydrobiopterin] the “inhibition of tyrosinase activity” value ([2]; 20 micromolar 6BH4 added after 6 minutes) was “inhibited completely”.
